Data published in article PMC7363588, “Mapping of the FGF14:Nav1.6 complex interface reveals FLPK as a functionally active peptide modulating excitability” (Physiological Reports, 2020).
“Also recorded” adds a separate entry of the source. Peptide text beside a SMILES is read from it.

Assays:
[1] = tested on: persistent sodium current (I NaP) from MSNs in the nucleus accumbens; experiment: Brain slice voltage-clamp: persistent Na^+ current (I NaP) in MSNs; type: cell-based, male C57BL6/J mice
Description: Brain slices from male C57BL6/J mice aged 28–45 days were prepared to contain the nucleus accumbens (NAc). Mice were anesthetized with Isoflurane (Baxter, Deerfield, IL) and brains extracted following decapitation. Brains were sliced with a vibratome (Leica Microsystems, Wetzlar, Germany) to achieve 300 μm coronal slices. Brains sliced in extracellular salts; consisting of the following (mM): Tris‐HCl 72, Tris‐Base18, NaH2PO4 1.2, KCl 2.5, HEPES 20, sucrose 20, NaHCO3 25, glucose 25, MgSO4 10, Na‐pyruvate 3, Na‐ascorbate 5 and CaCl2 0.5 (Sigma‐Aldrich, St. Louis, MO); 300–310 mOsm, pH 7.4 and was continuously oxygenated (mixture of 95%/5% O2/CO2). […] Evoked action potentials with a range of current injections from 10 pA to 220 pA with 800 ms every 10 pA were measured and number of action potentials, instantaneous frequency, and other electrical parameters were determined. […] The voltage‐dependence of I NaP was determined using standard protocols (Yue, Remy, Su, Beck, & Yaari, 2005). […] Membrane capacitance was calculated using the equation: capacitance = membrane time constant/input resistance (Meitzen, Weaver, Brenowitz, & Perkel, 2009). The membrane input resistance was measured by a series of 600 ms hyperpolarizing current steps from −50 to 0 pA, step 10 pA with 1 s interval. […]

[2] = tested on: medium spiny neurons (MSNs) in the nucleus accumbens; experiment: Brain slice patch-clamp: intrinsic excitability and passive properties of MSNs; type: cell-based, male C57BL6/J mice
Description: Brain slices from male C57BL6/J mice aged 28–45 days were prepared to contain the nucleus accumbens (NAc). Mice were anesthetized with Isoflurane (Baxter, Deerfield, IL) and brains extracted following decapitation. Brains were sliced with a vibratome (Leica Microsystems, Wetzlar, Germany) to achieve 300 μm coronal slices. Brains sliced in extracellular salts; consisting of the following (mM): Tris‐HCl 72, Tris‐Base18, NaH2PO4 1.2, KCl 2.5, HEPES 20, sucrose 20, NaHCO3 25, glucose 25, MgSO4 10, Na‐pyruvate 3, Na‐ascorbate 5 and CaCl2 0.5 (Sigma‐Aldrich, St. Louis, MO); 300–310 mOsm, pH 7.4 and was continuously oxygenated (mixture of 95%/5% O2/CO2). Slices were then placed in a 32°C recovery chamber with freshly prepared tris‐based aCSF for 15 min before transfer to a 32°C chamber of standard aCSF consisting of the following extracellular salts (mM): NaCl 123.9, KCl 3.1, glucose 10, MgCl2 1, CaCl2 2, NaHCO3 24, and NaH2PO4 1.16 (Sigma‐Aldrich, St. Louis, MO); 300–310 mOsm, pH 7.4 and continuously oxygenated (mixture of 95%/5% O2/CO2). Finally, slices were equilibrated at RT for at least 45 min. DMSO and/or FLPK were added to standard aCSF to achieve a bath concentration of 0.1% DMSO and 50 μM FLPK. Brain slices were incubated in a separate chamber with standard aCSF containing 0.1% DMSO (control) or 50 μM FLPK and continuously oxygenated for 30 min. Somatic recordings from NAc visually identified medium spiny neurons (MSNs) in standard aCSF were carried out at 31°C using borosilicate glass pipettes (resistance of 3–5 MΩ) filled with an internal solution containing (mM): D‐gluconate (potassium salt) 145, MgCl2 2, EGTA 0.1, Na2ATP 2, and HEPES 10 (pH 7.2; 290 mOsm). Either an Axopatch 200B or a Multiclamp 700B amplifier was used to perform whole‐cell patch clamp experiments. For the Axopatch 200B, a digidata 1,200 analog–digital interface and pClamp 9 software with filtering at 20 kHz and digitizing at 5 kHz were used for data acquisition and stimulation. For the Multiclamp 700B, a digidata 1,350 analog‐digital interface and pClamp 10.9 with filtering at 20 kHz and digitizing at 5 kHz were used for data acquisition and stimulation. First a giga‐seal was formed and the cell membrane ruptured after which MSNs were held in […] for 1 min to measure resting membrane potential. Next, MSNs were held in current clamp mode to assess cell activity. Evoked action potentials with a range of current injections from 10 pA to 220 pA with 800 ms every 10 pA were measured and number of action potentials, instantaneous frequency, and other electrical parameters were determined. Average instantaneous firing frequency (IFF) is defined as the average of all reciprocal interspike intervals (ms) at a particular current step. Cells with a current threshold above 180 pA, a resting membrane potential above −60 mV, and an input resistance outside the range of 70–250 MΩ were excluded. To isolate persistent Na^+ current (I NaP) in whole‐cell voltage‐clamp recordings, we used a modified aCSF containing 20 mM tetraethylammonium chloride (TEA) and 0.3 mM CdCl2. The voltage‐dependence of I NaP was determined using standard protocols (Yue, Remy, Su, Beck, & Yaari, 2005). Membrane capacitances and Rseries were compensated electronically. Series resistances (Rs) before compensation were in the range of 5–20 MΩ and were routinely corrected by 75%–85%. Data obtained from a given cell were rejected if Rs was larger than 20 MΩ or changed by > 20% during the course of the experiment. Membrane capacitance was calculated using the equation: capacitance = membrane time constant/input resistance (Meitzen, Weaver, Brenowitz, & Perkel, 2009). The membrane input resistance was measured by a series of 600 ms hyperpolarizing current steps from −50 to 0 pA, step 10 pA with 1 s interval. The slope of the current‐voltage curve was designated as the membrane input resistance. […]

Structure (SMILES): CC(=O)N[C@@H](Cc1ccccc1)C(=O)N[C@@H](CC(C)C)C(=O)N1CCC[C@H]1C(=O)N[C@@H](CCCCN)C(N)=O [FLPK] (Ac-FLPK-NH2)
- effect on I NaP ([1]; 50 µM FLPK vs 0.1% DMSO): increase in persistent sodium current; also recorded: potentiated persistent Na^+ currents
- persistent sodium current (I NaP) ([1]; 50 µM FLPK, slow voltage ramps (50 mV/s), TTX-subtracted, control 111.4 ± 15.7 pA, p < .03, n = 14): −158.2 ± 14.2 pA
- effect on MSN firing and passive properties ([2]; 50 µM FLPK vs 0.1% DMSO): significantly increased the number of evoked action potentials and the instantaneous firing frequency; also recorded: no changes in several other electrophysiological parameters including membrane potential and input resistance; also recorded: increase in the total number of action potentials as well as instantaneous firing frequency
- Tau (τ), membrane time constant ([2]; 50 µM FLPK, 30 min incubation, mean ± SEM, n = 5–12, DMSO 16.1 ± 2.1, p = .157): 11.9 ± 1.6 ms
- Cm ([2]; 50 µM FLPK, 30 min incubation, mean ± SEM, n = 5–12, DMSO 90.2 ± 14.5, p = .521): 80.1 ± 7.6 pF
- Ithr ([2]; 50 µM FLPK, 30 min incubation, mean ± SEM, n = 5–12, DMSO 110 ± 14.2, p = .221): 78 ± 18.3 pA
- Rin ([2]; 50 µM FLPK, 30 min incubation, mean ± SEM, n = 5–12, DMSO 119.1 ± 10.3, p = .088): 147.2 ± 11.3 MΩ
- Vthr ([2]; 50 µM FLPK, 30 min incubation, mean ± SEM, n = 5–12, DMSO −40.5 ± 1.1, p = .422): −38.7 ± 2.2 mV
- RMP ([2]; 50 µM FLPK, 30 min incubation, mean ± SEM, n = 5–12, DMSO −75.3 ± 1.5, p = .125): −79.7 ± 2.6 mV
- number of evoked action potentials ([2]; 50 µM FLPK, current step 180 pA, n = 7, DMSO 14.9 ± 2.3, n = 14, p < .016): 23.7 ± 1.2
- instantaneous firing frequency ([2]; 50 µM FLPK, current step 180 pA, n = 7, DMSO 19.7 ± 2.6 Hz, n = 14, p < .0395): 28.6 ± 2.1 Hz
